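Protocol summary: plate cells (96-well), add compound at 5 concentrations, incubate 48 h, interpolate endpoints linearly. The concentration for 50% growth inhibition is given as GI50.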 The source made the active and inactive calls. Cut-off read from the data, not from the text of the source: active = GI50 up to about 1.1 µM and inactive = higher.
Assays:
Experiment in all cases: DTP human tumour cell line panel, 48 h
786-0 = test system: 786-0
HCT-116 = test system: HCT-116
HL-60 = test system: HL-60
NCI-H226 = test system: NCI-H226
NCI-H522 = test system: NCI-H522
OVCAR-4 = test system: OVCAR-4
OVCAR-8 = test system: OVCAR-8
RPMI-8226 = test system: RPMI-8226
SF-295 = test system: SF-295
SK-MEL-5 = test system: SK-MEL-5
SN12C = test system: SN12C
SNB-75 = test system: SNB-75
SR = test system: SR
SW-620 = test system: SW-620
UACC-62 = test system: UACC-62
HCC 2998 = test system: HCC 2998

Measured: GI50

COc1ccc(C2S/C(=C\c3ccc(OC)cc3OC)C(=O)N2NC(=O)Cc2ccccc2)cc1 (stereo unspecified)
inactive: 786-0 > 100 µM | HCT-116 > 100 µM | HL-60 97.9 µM | NCI-H226 > 100 µM | NCI-H522 > 100 µM | OVCAR-4 > 100 µM | OVCAR-8 > 100 µM | RPMI-8226 > 100 µM | SF-295 > 100 µM | SK-MEL-5 > 100 µM | SN12C > 100 µM | SNB-75 > 100 µM | SR > 100 µM | SW-620 > 100 µM | UACC-62 > 100 µM

O=C(NC(=O)c1cn(CCNCCO)c(=O)[nH]c1=O)OCc1ccccc1
inactive: 786-0 > 100 µM | HCT-116 > 100 µM | HL-60 > 100 µM | NCI-H226 > 100 µM | NCI-H522 > 100 µM | OVCAR-4 > 100 µM | OVCAR-8 > 100 µM | RPMI-8226 > 100 µM | SF-295 > 100 µM | SK-MEL-5 > 100 µM | SN12C > 100 µM | SNB-75 45.9 µM | SR > 100 µM | SW-620 > 100 µM | UACC-62 > 100 µM

CC(=O)O[C@H]1CC[C@@]2(C)C(=CC[C@@H]3C2CC[C@]2(C)Nc4nc5ccccc5cc4CC32)C1 (stereo partly specified)
inactive: 786-0 3.28 µM | HCC 2998 2.98 µM | HCT-116 1.86 µM | HL-60 4.32 µM | NCI-H226 3.05 µM | NCI-H522 11.4 µM | OVCAR-4 8.53 µM | OVCAR-8 3.13 µM | RPMI-8226 8.65 µM | SF-295 3.78 µM | SK-MEL-5 4.1 µM | SN12C 7.1 µM | SNB-75 2.65 µM | SW-620 2.59 µM | UACC-62 10.8 µM

CC1CCC(C(C)(C)c2ccccc2)C(=O)C1 (stereo unspecified)
inactive: 786-0 > 100 µM | HCC 2998 > 100 µM | HCT-116 > 100 µM | HL-60 25.6 µM | OVCAR-4 > 100 µM | OVCAR-8 > 100 µM | RPMI-8226 95.3 µM | SF-295 > 100 µM | SK-MEL-5 > 100 µM | SN12C > 100 µM | SNB-75 > 100 µM | SW-620 > 100 µM | UACC-62 > 100 µM

CCN1C(=O)C(=CN)C(=O)N(CC)C1=O
inactive: 786-0 > 100 µM | HCC 2998 > 100 µM | HCT-116 > 100 µM | HL-60 > 100 µM | NCI-H226 > 100 µM | NCI-H522 > 100 µM | OVCAR-4 > 100 µM | OVCAR-8 > 100 µM | SF-295 > 100 µM | SK-MEL-5 > 100 µM | SN12C > 100 µM | SNB-75 14.7 µM | SW-620 > 100 µM | UACC-62 > 100 µM

Cc1ccc(S(=O)(=O)N/N=C/c2oc(-c3ccncc3)c(-c3ccncc3)c2[N+](=O)[O-])cc1
inactive: 786-0 > 100 µM | HCC 2998 > 100 µM | HCT-116 > 100 µM | HL-60 > 100 µM | NCI-H226 > 100 µM | NCI-H522 > 100 µM | OVCAR-4 > 100 µM | OVCAR-8 > 100 µM | SF-295 > 100 µM | SK-MEL-5 > 100 µM | SN12C > 100 µM | SNB-75 > 100 µM | SR > 100 µM | SW-620 > 100 µM | UACC-62 > 100 µM

CN(C)CCONC(=O)C12CC3CC(CC(C3)C1)C2
inactive: 786-0 > 100 µM | HCT-116 > 100 µM | HL-60 > 100 µM | NCI-H226 > 100 µM | NCI-H522 > 100 µM | OVCAR-8 > 100 µM | RPMI-8226 > 100 µM | SF-295 > 100 µM | SK-MEL-5 > 100 µM | SN12C > 100 µM | SNB-75 > 100 µM | SR > 100 µM | UACC-62 > 100 µM

CCc1cccc(C(C)CC)c1/N=C(/NC(=O)c1ccccc1C(=O)N/C(=N/c1c(CC)cccc1C(C)CC)SC)SC (stereo unspecified)
inactive: 786-0 49.3 µM | HCC 2998 49.8 µM | HCT-116 34.4 µM | HL-60 20.9 µM | NCI-H226 17.7 µM | NCI-H522 28.2 µM | OVCAR-4 54.3 µM | OVCAR-8 59.2 µM | RPMI-8226 30.1 µM | SF-295 37.4 µM | SN12C 40.1 µM | SR 39.6 µM | SW-620 31.9 µM | UACC-62 20.9 µM

Cc1[nH]c2ccccc2c1C1CC(=O)NC1=O (stereo unspecified)
inactive: 786-0 > 100 µM | HCC 2998 > 100 µM | HCT-116 > 100 µM | HL-60 > 100 µM | NCI-H226 > 100 µM | OVCAR-4 > 100 µM | OVCAR-8 > 100 µM | RPMI-8226 > 100 µM | SF-295 > 100 µM | SK-MEL-5 > 100 µM | SNB-75 > 100 µM | SW-620 > 100 µM | UACC-62 > 100 µM

C=CCO[C@H]1CC[C@@]2(C)C(CC[C@]3(C)C2CC=C2[C@@H]4[C@@H](C)C(C)CC[C@]4(C(=O)O)CCC23C)C1(C)C (stereo partly specified)
inactive: 786-0 15.7 µM | HCC 2998 17.1 µM | HCT-116 12.7 µM | HL-60 7.01 µM | NCI-H226 18.6 µM | NCI-H522 13.2 µM | OVCAR-4 17.6 µM | OVCAR-8 18.4 µM | SF-295 14.2 µM | SK-MEL-5 16.5 µM | SN12C 13.6 µM | SNB-75 15.6 µM | SR 13.8 µM | SW-620 18.5 µM | UACC-62 14.4 µM

CCOc1ccccc1NC(=O)C(=O)c1c(O)c2ccc(O)cc2oc1=O
inactive: 786-0 > 100 µM | HCC 2998 > 100 µM | HCT-116 > 100 µM | HL-60 > 100 µM | NCI-H226 > 100 µM | NCI-H522 > 100 µM | OVCAR-4 > 100 µM | OVCAR-8 > 100 µM | SF-295 > 100 µM | SK-MEL-5 > 100 µM | SN12C > 100 µM | SNB-75 > 100 µM | SR > 100 µM | SW-620 > 100 µM | UACC-62 > 100 µM

CCCC(C)n1c(C)nc2c1C(=O)c1ccccc1C2=O (stereo unspecified)
inactive: 786-0 19.9 µM | HCC 2998 40.4 µM | HCT-116 5.52 µM | HL-60 33.2 µM | NCI-H226 34.4 µM | NCI-H522 23.1 µM | OVCAR-4 36.1 µM | OVCAR-8 22.8 µM | SF-295 23.7 µM | SK-MEL-5 13.3 µM | SN12C 29.9 µM | SNB-75 19.5 µM | SR > 100 µM | SW-620 37.7 µM | UACC-62 6.78 µM

CC(C)(c1ccccc1)c1ccc(Oc2ccc3c(c2)-c2nc-3nc3[nH]c(nc4nc(nc5[nH]c(n2)c2ccc(Oc6ccc(C(C)(C)c7ccccc7)cc6)cc52)-c2cc(Oc5ccc(C(C)(C)c6ccccc6)cc5)ccc2-4)c2ccc(Oc4ccc(C(C)(C)c5ccccc5)cc4)cc32)cc1
inactive: 786-0 > 100 µM | HCC 2998 > 100 µM | HCT-116 > 100 µM | HL-60 > 100 µM | NCI-H522 86.9 µM | OVCAR-8 > 100 µM | RPMI-8226 > 100 µM | SK-MEL-5 > 100 µM | SNB-75 27.8 µM | SW-620 > 100 µM | UACC-62 > 100 µM

COc1c2c(c(OC)c3c(=O)cc(C/C(=N/NC(=O)C[n+]4ccccc4)C(=O)Nc4cc(C)ccc4C)oc13)OCO2
inactive: 786-0 > 100 µM | HCC 2998 > 100 µM | HCT-116 > 100 µM | HL-60 > 100 µM | NCI-H522 > 100 µM | OVCAR-4 > 100 µM | OVCAR-8 > 100 µM | RPMI-8226 > 100 µM | SK-MEL-5 > 100 µM | SN12C > 100 µM | SNB-75 > 100 µM | SW-620 > 100 µM | UACC-62 > 100 µM

O=C1c2nn(-c3ccccc3)nc2C(c2ccccc2)N1c1ccccc1 (stereo unspecified)
inactive: 786-0 33.3 µM | HCC 2998 > 100 µM | HCT-116 > 100 µM | NCI-H226 34 µM | NCI-H522 > 100 µM | OVCAR-4 > 100 µM | OVCAR-8 52.8 µM | RPMI-8226 > 100 µM | SF-295 41.7 µM | SK-MEL-5 > 100 µM | SN12C > 100 µM | SNB-75 25 µM | SR > 100 µM | SW-620 > 100 µM | UACC-62 > 100 µM

CC1CN(c2ccc(Cl)cc2)CC(C)OC(=O)O1 (stereo unspecified)
inactive: 786-0 > 100 µM | HCC 2998 > 100 µM | HL-60 > 100 µM | NCI-H226 > 100 µM | NCI-H522 > 100 µM | OVCAR-4 > 100 µM | OVCAR-8 > 100 µM | RPMI-8226 > 100 µM | SF-295 > 100 µM | SK-MEL-5 > 100 µM | SN12C > 100 µM | SNB-75 > 100 µM | SR > 100 µM | SW-620 > 100 µM | UACC-62 > 100 µM

CC(=O)Nc1ccc(-c2nnc(SCC(=O)Nc3ccc(Cl)cc3)o2)cc1
inactive: 786-0 5.78 µM | HCC 2998 17 µM | HCT-116 7.74 µM | HL-60 16.3 µM | NCI-H226 11.1 µM | NCI-H522 2.34 µM | OVCAR-4 13.1 µM | OVCAR-8 12.5 µM | RPMI-8226 6.89 µM | SF-295 11.3 µM | SK-MEL-5 5.69 µM | SN12C 10.4 µM | SNB-75 21.5 µM | SW-620 6.21 µM | UACC-62 4.89 µM

O=C(/C=C/c1ccccc1O)c1ccccc1Cl
inactive: 786-0 92.5 µM | HCC 2998 38.1 µM | HCT-116 48.6 µM | HL-60 15.3 µM | NCI-H226 > 100 µM | NCI-H522 31.3 µM | OVCAR-4 19.2 µM | OVCAR-8 58.6 µM | SF-295 > 100 µM | SK-MEL-5 42.3 µM | SN12C 56.4 µM | SNB-75 14.8 µM | SR 27.7 µM | SW-620 35.5 µM | UACC-62 67.5 µM

From ChEMBL document CHEMBL1201862, “PubChem BioAssay data set” (2004)
